Results: patent EP4635500A1, “THERAPEUTIC AGENT FOR BACTERIAL INFECTION” (Sumitomo Pharma Co., Ltd., priority 2022, dated 2024)
Values after ≈ are worked out from the molar mass of the structure shown. Like-named read-outs stand apart in the source and are kept apart here.

System: Enterobacterales
Test: MIC, broth microdilution, CDC/FDA Antibiotic Resistance Isolate Bank (Example 7, Tables 8, 11, 12)
Type: cell-based
Settings: for MIC: read-out: MIC

Compound: CO/N=C(\C(=O)N[C@@H]1C(=O)N2C(C(=O)[O-])=C(C[n+]3ccn4ncccc43)CS[C@H]12)c1nsc(N)n1 [Cefozopran, cefozopran]
- MIC (Klebsiella pneumoniae, KUB No. 5632, AR Bank # 135): > 64 µg/mL
- MIC (Klebsiella pneumoniae, KUB No. 5635, AR Bank # 138): > 64 µg/mL
- MIC (Klebsiella pneumoniae, KUB No. 5636, AR Bank # 139): 64 µg/mL (≈ 124 µM)
- MIC (Klebsiella pneumoniae, KUB No. 5637, AR Bank # 140): > 64 µg/mL
- MIC (Klebsiella pneumoniae, KUB No. 5638, AR Bank # 141): > 64 µg/mL
- MIC (Klebsiella pneumoniae, KUB No. 5639, AR Bank # 142): > 64 µg/mL
- MIC (Klebsiella pneumoniae, KUB No. 5640, AR Bank # 143): > 64 µg/mL
- MIC (Klebsiella pneumoniae, KUB No. 5642, AR Bank # 145): 64 µg/mL (≈ 124 µM)
- MIC (Klebsiella pneumoniae, KUB No. 5643, AR Bank # 146): > 64 µg/mL
- MIC (Klebsiella pneumoniae, KUB No. 5645, AR Bank # 148): 64 µg/mL (≈ 124 µM)
- MIC (Klebsiella pneumoniae, KUB No. 5649, AR Bank # 152): > 64 µg/mL
- MIC (Klebsiella pneumoniae, KUB No. 5650, AR Bank # 153): > 64 µg/mL
- MIC (Klebsiella pneumoniae, KUB No. 5655, AR Bank # 158): > 64 µg/mL
- MIC (Klebsiella pneumoniae, KUB No. 5657, AR Bank # 160): 2 µg/mL (≈ 3.88 µM)
- MIC (Klebsiella pneumoniae, KUB No. 5757, AR Bank # 361): 16 µg/mL (≈ 31 µM)
- MIC (Klebsiella pneumoniae, KUB No. 5759, AR Bank # 363): 16 µg/mL (≈ 31 µM)
- MIC (Klebsiella pneumoniae, KUB No. 5760, AR Bank # 364): 4 µg/mL (≈ 7.76 µM)
- MIC (Klebsiella pneumoniae, KUB No. 5772, AR Bank # 376): > 64 µg/mL
- MIC (Klebsiella pneumoniae, Klebsiella pneumoniae KUB No. 5784, AR Bank #438): > 64 µg/mL
- MIC (Klebsiella pneumoniae, Klebsiella pneumoniae KUB No. 5797, AR Bank #453): > 64 µg/mL
- MIC (Klebsiella pneumoniae, Klebsiella pneumoniae KUB No. 5809, AR Bank #504): > 64 µg/mL
- MIC (Klebsiella pneumoniae, Klebsiella pneumoniae KUB No. 5810, AR Bank #505): > 64 µg/mL
- MIC (Klebsiella pneumoniae, Klebsiella pneumoniae KUB No. 5811, AR Bank #506): > 64 µg/mL
- MIC (Klebsiella pneumoniae, Klebsiella pneumoniae KUB No. 5812, AR Bank #507): > 64 µg/mL
- MIC (Klebsiella pneumoniae, Klebsiella pneumoniae KUB No. 5827, AR Bank #522): > 64 µg/mL
- MIC (Klebsiella pneumoniae, Klebsiella pneumoniae KUB No. 5828, AR Bank #523): 32 µg/mL (≈ 62.1 µM)
- MIC (Klebsiella pneumoniae, Klebsiella pneumoniae KUB No. 5829, AR Bank #524): 32 µg/mL (≈ 62.1 µM)
- MIC (Klebsiella pneumoniae, Klebsiella pneumoniae KUB No. 5830, AR Bank #525): 32 µg/mL (≈ 62.1 µM)
- MIC (Kluyvera ascorbata, KUB No. 5641, AR Bank # 144): 16 µg/mL (≈ 31 µM)
- MIC (Morganella morganii, KUB No. 5554, AR Bank# 57): > 64 µg/mL
- MIC (Morganella morganii, KUB No. 5630, AR Bank # 133): 64 µg/mL (≈ 124 µM)
- MIC (Proteus mirabilis, KUB No. 5556, AR Bank# 59): 2 µg/mL (≈ 3.88 µM)
- MIC (Proteus mirabilis, KUB No. 5652, AR Bank # 155): 64 µg/mL (≈ 124 µM)
- MIC (Proteus mirabilis, KUB No. 5653, AR Bank # 156): 0.5 µg/mL (≈ 0.97 µM)
- MIC (Proteus mirabilis, KUB No. 5656, AR Bank # 159): > 64 µg/mL
- MIC (Proteus mirabilis, KUB No. 5773, AR Bank # 377): 16 µg/mL (≈ 31 µM)
- MIC (Proteus mirabilis, KUB No. 5775, AR Bank # 379): 4 µg/mL (≈ 7.76 µM)
- MIC (Providencia rettgeri, KUB No. 5579, AR Bank # 82): 16 µg/mL (≈ 31 µM)
- MIC (Raoultella ornithinolvtica, KUB No. 5631, AR Bank # 134): 8 µg/mL (≈ 15.5 µM)
- MIC (Salmonella enterica, Salmonella Senftenberg, KUB No. 5624, AR Bank # 127): > 64 µg/mL
- MIC (Serratia marcescens, KUB No. 5588, AR Bank # 91): 0.12 µg/mL (≈ 0.233 µM)
- MIC (Serratia marcescens, KUB No. 5596, AR Bank # 99): 0.25 µg/mL (≈ 0.485 µM)
- MIC (Serratia marcescens, KUB No. 5618, AR Bank # 121): 0.12 µg/mL (≈ 0.233 µM)
- MIC (Serratia marcescens, KUB No. 5619, AR Bank # 122): 0.12 µg/mL (≈ 0.233 µM)
- MIC (Serratia marcescens, KUB No. 5620, AR Bank # 123): 0.12 µg/mL (≈ 0.233 µM)
- MIC (Serratia marcescens, KUB No. 5621, AR Bank # 124): 0.12 µg/mL (≈ 0.233 µM)
- MIC (Serratia marcescens, KUB No. 5627, AR Bank # 130): 0.12 µg/mL (≈ 0.233 µM)
- MIC (Serratia marcescens, KUB No. 5628, AR Bank # 131): 0.12 µg/mL (≈ 0.233 µM)
- MIC (Serratia marcescens, Serratia marcescens KUB No. 5822, AR Bank #517): > 64 µg/mL
- MIC (Serratia marcescens, Serratia marcescens KUB No. 5825, AR Bank #520): 0.25 µg/mL (≈ 0.485 µM)
- MIC (Serratia marcescens, Serratia marcescens KUB No. 5826, AR Bank #521): 8 µg/mL (≈ 15.5 µM)
- MIC50 (carbapenemase-producing Enterobacterales, Metallo-β-lactamase (N = 47), read-out: MIC50): > 64 µg/mL
